IC50 data for 24 compounds are collected here from patent US10377770B2 (Novartis AG, priority 2015, dated 2019).

The assay addresses C-Raf FL (full length CRAF with Y340E and Y341E activating mutations, co-expressed with h14-3-3 zeta) (Homo sapiens (Human), UniProt P04049, Y340E/Y341E). The assay can be described thus: In vitro Raf activity determination, AlphaScreen p-MEK readout, c-Raf (C-Raf FL). The format is biochemical. The note with it: c-Raf approximately 4 nM, ATP 1 μM, pre-incubation 60 minutes, reaction 1 hour. In short, it runs like this:
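Phosphorylation of kinase-dead biotinylated MEK1 (~10 nM) by C-Raf FL (~4 nM) read by AlphaScreen luminescence with anti-phospho-MEK1/2 after EDTA stop. ATP was 1 μM, with a 1 h reaction at room temperature. Compounds were pre-incubated with enzyme and substrate for 60 min in Tris/MgCl2 buffer, pH 7.5.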
On the technique in general: Alpha assays give light when donor and acceptor beads are brought close together.

Sequence of C-Raf FL (full length CRAF with Y340E and Y341E activating mutations, co-expressed with h14-3-3 zeta) (P04049 whole entry Y340E/Y341E): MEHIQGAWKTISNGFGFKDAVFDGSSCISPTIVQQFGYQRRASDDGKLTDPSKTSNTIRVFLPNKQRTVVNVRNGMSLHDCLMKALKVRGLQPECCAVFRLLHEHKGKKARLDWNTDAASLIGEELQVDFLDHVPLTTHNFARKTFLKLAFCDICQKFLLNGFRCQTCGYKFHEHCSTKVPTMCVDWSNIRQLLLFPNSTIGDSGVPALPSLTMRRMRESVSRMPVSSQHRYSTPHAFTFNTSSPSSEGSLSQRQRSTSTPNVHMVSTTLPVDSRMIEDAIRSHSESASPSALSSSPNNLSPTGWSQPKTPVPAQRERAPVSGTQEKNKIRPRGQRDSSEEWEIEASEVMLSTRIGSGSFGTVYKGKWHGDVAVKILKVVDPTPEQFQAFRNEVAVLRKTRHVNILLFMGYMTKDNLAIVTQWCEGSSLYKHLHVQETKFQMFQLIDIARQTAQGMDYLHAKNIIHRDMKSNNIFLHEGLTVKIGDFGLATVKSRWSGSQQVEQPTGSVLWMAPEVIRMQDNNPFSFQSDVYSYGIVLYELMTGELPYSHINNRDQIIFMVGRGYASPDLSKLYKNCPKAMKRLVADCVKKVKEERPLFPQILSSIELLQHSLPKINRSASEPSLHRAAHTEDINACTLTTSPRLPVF
Sequence of C-Raf FL (full length CRAF with Y340E and Y341E activating mutations, co-expressed with h14-3-3 zeta) (P63104 whole entry partner): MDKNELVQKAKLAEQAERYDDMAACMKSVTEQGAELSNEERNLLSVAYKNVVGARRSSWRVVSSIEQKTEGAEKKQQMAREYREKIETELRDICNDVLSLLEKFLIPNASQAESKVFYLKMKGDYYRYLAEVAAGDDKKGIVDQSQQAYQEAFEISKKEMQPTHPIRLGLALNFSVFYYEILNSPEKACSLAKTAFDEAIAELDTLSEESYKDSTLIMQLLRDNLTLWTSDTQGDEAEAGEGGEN

Compound `Cc1ccc(NC(=O)c2ccnc(C(F)(F)F)c2)cc1-c1cnc2c(c1)N1CCOC[C@@H]1C1(COC1)C2` [Example 155, (S)-N-(4-methyl-3-(1′,2′,4′,4a′-tetrahydro-6′H-spiro[oxetane-3,5′-[1,4]oxazino[4,3-a][1,5]naphthyridin]-9′-yl)phenyl)-2-(trifluoromethyl)isonicotinamide] returned an IC50 of 360 pM.

`Cc1ccc(NC(=O)c2ccnc(C(C)(F)F)c2)cc1-c1cc(F)c2c(c1)N1CCOC[C@@H]1[C@](F)(CO)C2` [Example 436, N-(3-((4aR,5S)-5,7-difluoro-5-(hydroxymethyl)-1,2,4,4a,5,6-hexahydro-[1,4]oxazino[4,3-a]quinolin-9-yl)-4-methylphenyl)-2-(1,1-difluoroethyl) isonicotinamide] registered an IC50 of 300 pM.

Compound `CCN1C(=O)[C@@H]2COCC[C@H]2c2cc(-c3cc(NC(=O)c4ccnc(C(C)(C)F)c4)cnc3C)cnc21` [Example 313, N-(5-((4aS, 10bR)-6-ethyl-5-oxo-1,4,4a,5,6,10b-hexahydro-2H-pyrano[3,4-c][1,8]naphthyridin-9-yl)-6-methylpyridin-3-yl)-2-(2-fluoropropan-2-yl)isonicotinamide] came in with an IC50 of 500 pM.

In the case of `Cc1ccc(NC(=O)c2ccnc(C(C)(F)F)c2)cc1-c1ccc2c(c1)N1CCOC[C@H]1[C@@](F)(CO)C2` [Example 371, 2-(1,1-difluoroethyl)-N-(3-((4aS,5R)-5-fluoro-5-(hydroxymethyl)-1,2,4,4a,5,6-hexahydro-[1,4]oxazino[4,3-a]quinolin-9-yl)-4-methylphenyl)isonicotinamide], the IC50 is 200 pM.

In turn, `Cc1ccc(NC(=O)c2ccnc(C(F)(F)F)c2F)cc1-c1ccc2c(c1)N1CCOC[C@H]1[C@@](F)(CO)C2` [Example 395, 3-fluoro-N-(3-((4aS,5R)-5-fluoro-5-(hydroxymethyl)-1,2,4,4a,5,6-hexahydro-[1,4]oxazino[4,3-a]quinolin-9-yl)-4-methylphenyl)-2-(trifluoromethyl)isonicotinamide] returned a half-maximal inhibitory concentration (IC50) of 200 pM.

In the case of `Cc1ccc(NC(=O)c2cnnc(C(F)(F)F)c2)cc1-c1cc(F)c2c(c1)N1CCOC[C@@H]1[C@](F)(CO)C2` [Example 439, N-(3-((4aR,5S)-5,7-difluoro-5-(hydroxymethyl)-1,2,4,4a,5,6-hexahydro-[1,4]oxazino[4,3-a]quinolin-9-yl)-4-methylphenyl)-6-(trifluoromethyl) pyridazine-4-carboxamide], the midpoint of inhibition, the IC50, lay at 100 pM.

The compound `Cc1ncc(NC(=O)c2cccc(C(F)(F)F)c2)cc1-c1cnc2c(c1)N1CCOC[C@H]1C[C@H]2OCCO` [Example 514, N-(5-((4aR,6R)-6-(2-hydroxyethoxy)-1,2,4,4a,5,6-hexahydro-[1,4]oxazino[4,3-a][1,5]naphthyridin-9-yl)-6-methylpyridin-3-yl)-3-(trifluorometh-yl)benzamide] gave an IC50 of 400 pM.

`CCN1C(=O)[C@@H]2COCC[C@H]2c2cc(-c3cc(NC(=O)c4cccc(C(F)(F)F)c4)cnc3C)cnc21` [Example 312, N-(5-((4aS, 10bR)-6-ethyl-5-oxo-1,4,4a,5,6,10b-hexahydro-2H-pyrano[3,4-c][1,8]naphthyridin-9-yl)-6-methylpyridin-3-yl)-3-(trifluoromethyl) benzamide] registered an IC50 of 100 pM. This IC50 is about 4-fold lower than that of the compound before.

The compound `CCN1C(=O)C2CCOCCC2c2cc(-c3cc(NC(=O)c4ccnc(C(F)(F)F)c4)ccc3C)cnc21` (stereo not drawn) [Example 246, N-(3-((5a, 11b-cis)-7-ethyl-6-oxo-1,2,4,5,5a,6,7,11b-octahydrooxepino [4,5-c][1,8]naphthyridin-10-yl)-4-methylphenyl)-2-(trifluoromethyl) isonicotinamide] returned an IC50 of 200 pM.

As to `CCN1C(=O)[C@@H]2[C@H]3COC[C@H]3[C@@H]2c2cc(-c3cc(NC(=O)c4cccc(C(F)(F)F)c4)cnc3C)cnc21` [Example 272, N-(5-((6aS, 6bS, 9aS, 9bS)-5-ethyl-6-oxo-5,6,6a,6b,7,9,9a,9b-octahydrofuro[3′,4′: 3,4]cyclobuta[1,2-c][1,8]naphthyridin-2-yl)-6-methylpyridin-3-yl)-3-(trifluoromethyl) benzamide], the midpoint of inhibition, the IC50, lay at 500 pM.

The compound `CCN1C(=O)C(C)(C)c2nncn2-c2cc(-c3cc(NC(=O)c4ccnc(C(F)(F)F)c4)ccc3C)cnc21` [Example 239, N-(3-(6-ethyl-4,4-dimethyl-5-oxo-5,6-dihydro-4H-pyrido[2,3-b][1,2,4]-triazolo[4,3-d][1,4]diazepin-9-yl)-4 methylphenyl)-2-(trifluoromethyl) isonicotinamide] gave an IC50 of 4700 pM. Against the preceding compound, the IC50 is about 9.4-fold higher.

As to `CCN1C(=O)C2CCOCCC2c2cc(-c3cc(NC(=O)c4ccnc(C(F)(F)F)c4)ccc3C)cnc21` (stereo not drawn) [Example 247, N-(3-((5a, 11b-cis)-7-ethyl-6-oxo-1,2,4,5,5a,6,7,11b-octahydrooxepino 4,5-c][1,8]naphthyridin-10-yl)-4-methylphenyl)-2-(trifluoromethyl) isonicotinamide], the IC50 stood at 300 pM.

The compound `Cc1ccc(NC(=O)c2ccnc(C(F)(F)F)c2)cc1-c1cnc2c(c1)N1CCOC[C@H]1C[C@@H]2O` (racemic) [Example 101, rac-cis-N-(3-(6-hydroxy-1,2,4,4a,5,6-hexahydro-[1,4]oxazino[4,3-a][1,5]naphthyridin-9-yl)-4-methylphenyl)-2-(trifluoromethyl)isonicotinamide] registered an IC50 of 26 pM.

In the case of `Cc1ccc(NC(=O)c2ccnc(C(C)(F)F)c2)cc1-c1cnc2c(c1)[C@@]1(C)CCOCC[C@@H]1C(=O)N2CCO` (relative stereo) [Example 351, 2-(1,1-difluoroethyl)-N-((5a,11b-trans)-3-(7-(2-hydroxyethyl)-11b-methyl-6-oxo-1,2,4,5,5a,6,7,11b-octahydrooxepino[4,5-c][1,8]naphthyridin-10-yl)-4-methylphenyl) isonicotinamide], the IC50 came to 1100 pM.

Compound `Cc1ncc(NC(=O)c2cccc(C(F)(F)F)c2)cc1-c1ccc2c(c1)N1CCOC[C@H]1[C@](F)(CO)C2` [Example 383, N-(5-((4aS,5S)-5-fluoro-5-(hydroxymethyl)-1,2,4,4a,5,6-hexahydro-[1,4]oxazino[4,3-a]quinolin-9-yl)-6-methylpyridin-3-yl)-3(trifluoromethyl)benzamide] displayed an IC50 of 1000 pM.

As to `Cc1ccc(NC(=O)c2ccnc(C(C)(F)F)c2)cc1-c1cnc2c(c1)N1CCOC[C@@H]1[C@H](CO)C2` [Example 495, 2-(1,1-difluoroethyl)-N-(3-((4aS,5R)-5-(hydroxymethyl)-1,2,4,4a,5,6-hexahydro-[1,4]oxazino[4,3-a][1,5]naphthyridin-9-yl)-4-methylphenyl)iso-nicotinamide], inhibition was half-maximal at 100 pM (IC50).

With `Cc1ncc(NC(=O)c2cccc(C(C)(F)F)c2)cc1-c1ccc2c(c1)N1CCOC[C@H]1[C@](F)(CO)C2` [Example 367, 3-(1,1-difluoroethyl)-N-(5-((4aS,5S)-5-fluoro-5-(hydroxymethyl)-1,2,4,4a,5,6-hexahydro-[1,4]oxazino[4,3-a]quinolin-9-yl)-6-methylpyridin-3-yl)benzamide], the half-maximal inhibitory concentration (IC50) was determined as 1000 pM.

`Cc1ccc(NC(=O)c2ccnc(C(C)(F)F)c2)cc1-c1ccc2c(c1)N1CCOC[C@H]1[C@](C)(N)C2` (racemic) [Example 92, (rac)-(syn)-N-(3-(5-amino-5-methyl-1,2,4,4a,5,6-hexahydro-[1,4]oxazino[4,3-a]quinolin-9-yl)-4-methylphenyl)-2-(1,1-difluoroethyl)isonicotinamide] came in with an IC50 of 610 pM. This IC50 is about 1.6-fold lower than that of the compound before.

Turning to `Cc1ccc(NC(=O)c2ccnc(C(C)(C)F)c2)cc1-c1ccc2c(c1)N1CCOC[C@H]1[C@](F)(CN)C2` [Example 525, N-(3-((4aS,5R)-5-(aminomethyl)-5-fluoro-1,2,4,4a,5,6-hexahydro-[1,4]oxazino[4,3-a]quinolin-9-yl)-4-methylphenyl)-2-(2-fluoropropan-2-yl)isonicotinamide], inhibition was half-maximal at 1500 pM (IC50).

Take `CCOC(=O)c1c2n(c3cc(-c4cc(NC(=O)c5ccnc(C(F)(F)F)c5)ccc4C)ccc3c1=O)CCOC2` [Example 1, ethyl 9-(2-methyl-5-(2-(trifluoromethyl)isonicotinamido)phenyl)-6-oxo-1,2,4,6-tetrahydro-[1,4]oxazino[4,3-a]quinoline-5-carboxylate]: the IC50 came out at 45 pM.

`CCN1C(=O)C[C@@H]2COCCN2c2cc(-c3cc(NC(=O)c4ccnc(C(F)(F)F)c4F)ccc3C)cnc21` [Example 327, (R)-N-(3-(7-ethyl-6-oxo-2,4,4a,5,6,7-hexahydro-1H-[1,4]oxazino[4,3-d]pyrido[2,3-b][1,4]diazepin-10-yl)-4-methylphenyl)-3-fluoro-2-(trifluoromethyl) isonicotinamide] had an IC50 of 300 pM.

As for `CCN1C(=O)[C@@H]2[C@H]3COC[C@H]3[C@@H]2c2cc(-c3cc(NC(=O)c4ccnc(C(F)(F)F)c4F)ccc3C)cnc21` [Example 273, N-(3-((6aS, 6bS, 9aS, 9bS)-5-ethyl-6-oxo-5,6,6a,6b,7,9,9a,9b-octahydrofuro[3′,4′: 3,4]cyclobuta[1,2-c][1,8]naphthyridin-2-yl)-4-methylphenyl)-3-fluoro-2-(trifluoromethyl) isonicotinamide], inhibition was half-maximal at 200 pM (IC50).

In the case of `Cc1ccc(NC(=O)c2cnnc(C(F)(F)F)c2)cc1-c1cc2c(cc1F)C[C@](F)(CO)[C@H]1COCCN21` [Example 477, N-(3-((4aR,5R)-5,8-difluoro-5-(hydroxymethyl)-1,2,4,4a,5,6-hexahydro-[1,4]oxazino[4,3-a]quinolin-9-yl)-4-methylphenyl)-6-(trifluoromethyl) pyridazine-4-carboxamide], the IC50 is 100 pM.

In turn, `Cc1ccc(NC(=O)c2ccnc(C(C)(F)F)c2)cc1-c1ccc2c(c1)N1CCOC[C@H]1[C@](F)(CO)C2` [Example 369, 2-(1,1-difluoroethyl)-N-(3-((4aS,5S)-5-fluoro-5-(hydroxymethyl)-1,2,4,4a,5,6-hexahydro-[1,4]oxazino[4,3-a]quinolin-9-yl)-4-methylphenyl)isonicotinamide] displayed a half-maximal inhibitory concentration (IC50) of 300 pM.

The IC50 is the concentration at which inhibition is half-maximal. A high value points to weaker potency in that assay.
